Assay results reported in patent publication US11261186B2, “Biaryl derivative as GPR120 agonist” (LG CHEM, LTD., priority 2014, dated 2022).

Biological target: T1, hGPR120 (Homo sapiens, UniProt Q5NUL3)
T1 construct: expressed in transfected cells; host or cells: CHO-K1
T1 sequence (Q5NUL3 1-361): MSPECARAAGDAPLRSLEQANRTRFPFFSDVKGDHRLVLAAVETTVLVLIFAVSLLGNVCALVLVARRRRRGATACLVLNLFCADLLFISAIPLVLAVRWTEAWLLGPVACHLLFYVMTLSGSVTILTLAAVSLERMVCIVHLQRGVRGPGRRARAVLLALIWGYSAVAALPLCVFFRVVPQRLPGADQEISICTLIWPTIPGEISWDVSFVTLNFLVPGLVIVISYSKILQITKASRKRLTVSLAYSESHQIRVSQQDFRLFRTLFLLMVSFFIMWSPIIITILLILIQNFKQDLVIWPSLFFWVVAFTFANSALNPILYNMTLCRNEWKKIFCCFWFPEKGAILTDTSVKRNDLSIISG
Assay: Measurement of Activity of GPR120 Agonist (Cell-Based Assay), Calcium 5 dye fluorescence
Conditions: CHO-K1 cells expressing Ga16 and hGPR120
Outline: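 Fluorescence increase (Ex 485 nm, Em 525 nm) after agonist addition was calculated as relative percent of the 1% DMSO-only signal. Cells were CHO-K1 stably carrying Gα16 plus human GPR120, dye-loaded for 1 h after overnight (18 h) culture.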

EC50 | Structure (SMILES)
< 200 nM | CCOc1cncc(-c2cc(F)c(N3CCC(CC(=O)O)C3)c(F)c2)n1 (stereo not drawn) [Example 585, {1-[4-(6-ethoxy-pyrazin-2-yl)-2,6-difluoro-phenyl]-pyrrolidin-3-yl}-acetic acid]
< 200 nM | CC(C)Oc1cncc(-c2cc(F)c(OCCCC(=O)O)c(Cl)c2)n1 [Example 436, 4-[2-chloro-6-fluoro-4-(6-isopropoxy-pyrazin-2-yl)-phenoxy]-butyric acid]
< 200 nM | CCCOc1cc(C)nc(-c2cc(F)c(N3CCC(CC(=O)O)C3)c(F)c2)n1 (stereo not drawn) [Example 589, {1-[2,6-difluoro-4-(4-methyl-6-propoxy-pyrimidin-2-yl)-phenyl]-pyrrolidin-3-yl}-acetic acid]
< 200 nM | COc1ccc(-c2cc(F)c(OCCCC(=O)O)c(F)c2)c2c1OC(C)(C)C2 [Example 257, 4-[2,6-difluoro-4-(7-methoxy-2,2-dimethyl-2,3-dihydro-benzofuran-4-yl)-phenoxy]-butyric acid]
< 200 nM | O=C(O)CCCCc1ccc(-c2cccnc2OCC2CC2)cc1F [Example 247, 5-[4-(2-cyclopropylmethoxy-pyridin-3-yl)-2-fluoro-phenyl]-pentanoic acid]
< 200 nM | CN(CCCC(=O)O)c1c(F)cc(-c2cccc(NCC3CC3)c2)cc1F [Example 466, 4-[4-[3-(cyclopropylmethylamino)phenyl]-2,6-difluoro-N-methyl-anilino]butanoic acid]
< 200 nM | CCOc1cc(C)nc(-c2cc(F)c(N3CCC(CC(=O)O)C3)c(F)c2)n1 (stereo not drawn) [Example 590, {1-[4-(4-ethoxy-6-methyl-pyrimidin-2-yl)-2,6-difluoro-phenyl]-pyrrolidin-3-yl}-acetic acid]
200 to 2000 nM | O=C(O)CC1CCN(c2c(F)cc(-c3cncc(NC4CCCC4)n3)cc2F)C1 (stereo not drawn) [Example 504, 2-{1-[2,6-difluoro-4-(6-cyclopentylamino-pyrazin-2-yl)phenyl]pyrrolidin-3-yl}acetic acid]
< 200 nM | O=C(O)CCCOc1c(F)cc(-c2cncc(OCC3CC3)n2)cc1Cl [Example 431, 4-[2-chloro-4-(6-cyclopropylmethoxy-pyrazin-2-yl)-6-fluoro-phenoxy]-butyric acid]
200 to 2000 nM | CCOc1nc(-c2cc(F)c(N3CCC(CC(=O)O)CC3)c(F)c2)sc1C [Example 368, {1-[4-(4-ethoxy-5-methyl-thiazol-2-yl)-2,6-difluoro-phenyl]-piperidin-4-yl}acetic acid]
200 to 2000 nM | COc1ccc(Oc2ccnc(-c3cc(F)c(N4CCC(CC(=O)O)CC4)c(F)c3)n2)cc1 [Example 514, 2-[1-[4-[4-(4-methoxyphenoxy)pyrimidin-2-yl]-2,6-difluoro-phenyl]-4-piperidyl]acetic acid]
< 200 nM | CN(CCCC(=O)O)c1c(F)cc(-c2cccc3c2OC2(CCCC2)O3)cc1F [Example 449, 4-(2,6-difluoro-N-methyl-4-spiro[1,3-benzodioxol-2,1′-cyclopentan]-4-yl-anilino)butanoic acid]
< 200 nM | CC(C)Oc1cccc(-c2cc(F)c(N3CCC(CC(=O)O)C3)c(F)c2)n1 (stereo not drawn) [Example 563, {1-[2,6-difluoro-4-(6-isopropoxy-pyridin-2-yl)-phenyl]-pyrrolidin-3-yl}-acetic acid]
200 to 2000 nM | O=C(O)CC1CCN(c2c(F)cc(-c3cccc4c3OC3(CCCC3)O4)cc2F)CC1 [Example 453, 2-[1-(2,6-difluoro-4-spiro[1,3-benzodioxol-2,1′-cyclopentan]-4-yl-phenyl)-4-piperidyl]acetic acid]

Further lines, the compound ahead of its results:

Structure (SMILES) | EC50
CC(CCCC(=O)O)c1c(F)cc(-c2cccc(NC3CCCC3)c2)cc1F (stereo not drawn) [Example 52, 5-(3′-cyclopentylamino-3,5-difluoro-biphenyl-4-yl)-hexanoic acid] | < 200 nM
Oc1cc(CCNc2c(F)cc(-c3cccnc3OC3CCCC3)cc2F)on1 [Example 90, 5-[2-[4-[2-(cyclopentoxy)-3-pyridyl]-2,6-difluoro-anilino]ethyl]isoxazol-3-ol] | 200 to 2000 nM
CC(C)COc1cncc(-c2cc(F)c(N3CCC(CC(=O)O)C3)c(F)c2)n1 (stereo not drawn) [Example 496, 2-{1-[2,6-difluoro-4-(6-isobutoxy-pyrazin-2-yl)phenyl]pyrrolidin-3-yl}acetic acid] | 200 to 2000 nM
CN(CCCC(=O)O)c1c(F)cc(-c2cncc(OC3CCC3)n2)cc1F [Example 488, 4-[4-[6-(cyclobutoxy)pyrazin-2-yl]-2,6-difluoro-N-methyl-anilino]butanoic acid] | < 200 nM
CN(CCCC(=O)O)c1c(F)cc(-c2ccc(Cl)c(OC3CCC3)n2)cc1F [Example 531, 4-{[4-(5-chloro-6-cyclobutoxy-pyridin-2-yl)-2,6-difluoro-phenyl]-methyl-amino}-butyric acid] | 200 to 2000 nM
CC(C)Sc1cccc(-c2cc(F)c(N3CCC(CC(=O)O)CC3)c(F)c2)n1 [Example 105, 2-[1-[2,6-difluoro-4-(6-isopropylsulfanyl-2-pyridyl)phenyl]-4-piperidyl]acetic acid] | < 200 nM
CCCSc1ncccc1-c1ccc(CCCc2noc(=S)[nH]2)cc1 [Example 64, 3-[3-[4-(2-propylsulfanyl-3-pyridyl)phenyl]propyl]-4H-1,2,4-oxadiazol-5-thione] | 2000 to 20000 nM
CN(CCCC(=O)O)c1c(F)cc(-c2cccc3c2OC(F)(F)O3)cc1F [Example 203, 4-{[4-(2,2-difluoro-benzo[1,3]dioxol-4-yl)-2,6-difluoro-phenyl]-methyl-amino}-butyric acid] | < 200 nM
O=C(O)C1CC1COc1c(F)cc(-c2csc(OC3CCC3)n2)cc1F (stereo not drawn) [Example 551, 2-[4-(2-cyclobutoxy-thiazol-4-yl)-2,6-difluoro-phenoxymethyl]-cyclopropanecarboxylic acid] | 200 to 2000 nM
CC1(C)Cc2cccc(-c3cc(F)c(OCCCC(=O)O)c(F)c3)c2O1 [Example 22, 4-[4-(2,2-dimethyl-2,3-dihydro-benzofuran-7-yl)-2,6-difluoro-phenoxy]-butyric acid] | < 200 nM
Oc1cc(COc2c(F)cc(-c3cccnc3SC3CCCC3)cc2F)on1 [Example 65, 5-[[4-(2-cyclopentylsulfanyl-3-pyridyl)-2,6-difluoro-phenoxy]methyl]isoxazol-3-ol] | < 200 nM
O=C(O)CCCC1(c2c(F)cc(-c3cccnc3OC3CCCC3)cc2F)CC1 [Example 166, 4-{1-[4-(2-cyclopentyloxy-pyridin-3-yl)-2,6-difluoro-phenyl]-cyclopropyl}-butyric acid] | < 200 nM
CN1c2ccc(-c3cccc(OC4CCCC4)n3)cc2CCC1CCC(=O)O (stereo not drawn) [Example 12, 3-[6-(6-cyclopentyloxy-pyridin-2-yl)-1-methyl-1,2,3,4-tetrahydro-quinolin-2-yl]-propionic acid] | 200 to 2000 nM
O=C(O)CC1CN(c2c(F)cc(-c3cccnc3OC3CCCC3)cc2F)C1 [Example 113, 2-[1-[4-[2-(cyclopentoxy)-3-pyridyl]-2,6-difluoro-phenyl]azetidin-3-yl]acetic acid] | < 200 nM
O=C(O)CCCOc1c(F)cc(-c2cncc(OC3CCC3)n2)cc1F [Example 398, 4-[4-[6-(cyclobutoxy)pyrazin-2-yl]-2,6-difluoro-phenoxy]butanoic acid] | < 200 nM
O=C(O)CCC1CC1c1c(F)cc(-c2cccnc2OC2CCCC2)cc1F (stereo not drawn) [Example 175, 3-{2-[4-(2-cyclopentyloxy-pyridin-3-yl)-2,6-difluoro-phenyl]-cyclopropyl}-propanoic acid] | < 200 nM
CC(C)Sc1ncccc1-c1cc(F)c(N2CC(CCC(=O)O)C2)c(F)c1 [Example 133, 3-[1-[2,6-difluoro-4-(2-isopropylsulfanyl-3-pyridyl)phenyl]azetidin-3-yl]propanoic acid] | 200 to 2000 nM
CC(C)Oc1ccc(F)cc1-c1cc(F)c(N(C)CCCC(=O)O)c(F)c1 [Example 216, 4-[methyl-(3,5,5′-trifluoro-2′-isopropoxy-biphenyl-4-yl)-amino]-butyric acid] | < 200 nM
CN(CCCC(=O)O)c1ccc(-c2cccnc2SC2CCCC2)cc1F [Example 213, 4-{[4-(2-cyclopentylsulfanyl-pyridin-3-yl)-2-fluoro-phenyl]-methyl-amino}-butyric acid] | < 200 nM
O=C(O)CCCOc1c(F)cc(-c2cccc(OC3CCC3)c2)cc1F [Example 21, 4-(3′-cyclobutoxy-3,5-difluoro-biphenyl-4-yloxy)-butyric acid] | < 200 nM
CNc1ccccc1-c1cc(F)c(N(C)CCCC(=O)O)c(F)c1 [Example 222, 4-[(3,5-difluoro-2′-methylamino-biphenyl-4-yl)-methyl-amino]-butyric acid] | 200 to 2000 nM
CN(CCCC(=O)O)c1ccc(-c2cccnc2SC2CCC2)cc1F [Example 209, 4-{[4-(2-cyclobutylsulfanyl-pyridin-3-yl)-2-fluoro-phenyl]-methyl-amino}-butyric acid] | < 200 nM
O=C(O)CC1CCN(c2c(F)cc(-c3cccc(OC4CCC4)n3)cc2F)C1 (stereo not drawn) [Example 561, {1-[4-(6-cyclobutoxy-pyridin-2-yl)-2,6-difluoro-phenyl]-pyrrolidin-3-yl}-acetic acid] | < 200 nM
O=C(O)CC1CCN(c2c(F)cc(-c3cccc(OCC4CC4)n3)cc2F)CC1 [Example 106, 2-[1-[4-[6-(cyclopropylmethoxy)-2-pyridyl]-2,6-difluoro-phenyl]-4-piperidyl]acetic acid] | < 200 nM
O=C(O)CCC1CC1c1c(F)cc(-c2cccnc2OC2CCC2)cc1F (stereo not drawn) [Example 188, 3-{2-[4-(2-cyclobutoxy-pyridin-3-yl)-2,6-difluoro-phenyl]-cyclopropyl}-propanoic acid] | < 200 nM
